Measurements taken from ChEMBL document CHEMBL2396621, “Design, synthesis and biological evaluation of 2-mercapto-3-phenethylquinazoline bearing anilide fragments as potential antitumor agents: molecular docking study” (2013).

Key:
Assay type in all cases: functional
NCI-H322M = test: Cytotoxicity against human NCI-H322M cells assessed as growth inhibition at 10 uM after 48 hrs by coulter counter analysis; conditions: read-out: GI
NCI-H23 = test: Cytotoxicity against human NCI-H23 cells assessed as growth inhibition at 10 uM after 48 hrs by coulter counter analysis; conditions: NCI-H23, 48 h, read-out: GI
NCI-H226 = test: Cytotoxicity against human NCI-H226 cells assessed as growth inhibition at 10 uM after 48 hrs by coulter counter analysis; conditions: NCI-H226, 48 h, read-out: GI
HOP-62 = test: Cytotoxicity against human HOP62 cells assessed as growth inhibition at 10 uM after 48 hrs by coulter counter analysis; conditions: HOP-62, 48 h, read-out: GI
[1] = Cytotoxicity against human EKVX cells assessed as growth inhibition at 10 uM after 48 hrs by coulter counter analysis; conditions: read-out: GI
HL-60(TB) = test: Cytotoxicity against human HL-60(TB) cells assessed as growth inhibition at 10 uM after 48 hrs by coulter counter analysis; conditions: HL-60, 48 h, read-out: GI
MOLT-4 = test: Cytotoxicity against human MOLT4 cells assessed as growth inhibition at 10 uM after 48 hrs by coulter counter analysis; conditions: MOLT-4, 48 h, read-out: GI
Hs-578T = test: Cytotoxicity against human Hs578T cells assessed as growth inhibition at 10 uM after 48 hrs by coulter counter analysis; conditions: read-out: GI
SN12C = test: Cytotoxicity against human SN12C cells assessed as growth inhibition at 10 uM after 48 hrs by coulter counter analysis; conditions: read-out: GI
ACHN = test: Cytotoxicity against human ACHN cells assessed as growth inhibition at 10 uM after 48 hrs by coulter counter analysis; conditions: read-out: GI
OVCAR-4 = test: Cytotoxicity against human OVCAR4 cells assessed as growth inhibition at 10 uM after 48 hrs by coulter counter analysis; conditions: OVCAR-4, 48 h, read-out: GI
UACC-62 = test: Cytotoxicity against human UACC62 cells assessed as growth inhibition at 10 uM after 48 hrs by coulter counter analysis; conditions: UACC-62, 48 h, read-out: GI
SK-MEL-28 = test: Cytotoxicity against human SK-MEL-28 cells assessed as growth inhibition at 10 uM after 48 hrs by coulter counter analysis; conditions: SK-MEL-28, 48 h, read-out: GI
M14 = test: Cytotoxicity against human M14 cells assessed as growth inhibition at 10 uM after 48 hrs by coulter counter analysis; conditions: M14, 48 h, read-out: GI
U-251 = test: Cytotoxicity against human U251 cells assessed as growth inhibition at 10 uM after 48 hrs by coulter counter analysis; conditions: U-251, 48 h, read-out: GI
SF-268 = test: Cytotoxicity against human SF268 cells assessed as growth inhibition at 10 uM after 48 hrs by coulter counter analysis; conditions: SF-268, 48 h, read-out: GI
HT-29 = test: Cytotoxicity against human HT-29 cells assessed as growth inhibition at 10 uM after 48 hrs by coulter counter analysis; conditions: HT-29, 48 h, read-out: GI

Compound	inhibition of growth at 10 µM (NCI-H322M)	inhibition of growth at 10 µM (NCI-H23)	inhibition of growth at 10 µM (NCI-H226)	inhibition of growth at 10 µM (HOP-62)	inhibition of growth at 10 µM [1]	inhibition of growth at 10 µM (HL-60(TB))	inhibition of growth at 10 µM (MOLT-4)	inhibition of growth at 10 µM (Hs-578T)	inhibition of growth at 10 µM (SN12C)	inhibition of growth at 10 µM (ACHN)	inhibition of growth at 10 µM (OVCAR-4)	inhibition of growth at 10 µM (UACC-62)	inhibition of growth at 10 µM (SK-MEL-28)	inhibition of growth at 10 µM (M14)	inhibition of growth at 10 µM (U-251)	inhibition of growth at 10 µM (SF-268)	inhibition of growth at 10 µM (HT-29)
O=C(CSc1nc2ccccc2c(=O)n1CCc1ccccc1)Nc1ccccc1	< 10%	11%	< 10%	< 10%	16%	17%	< 10%	< 10%	< 10%	< 10%	< 10%	16%	< 10%	10%	< 10%	< 10%	< 10%
O=C(CSc1nc2ccccc2c(=O)n1CCc1ccccc1)Nc1ccc(Cl)cc1	13%	21%	24%	40%	29%			45%	13%	22%	14%	34%	10%	< 10%	25%	40%	< 10%
COc1ccc(NC(=O)CSc2nc3ccccc3c(=O)n2CCc2ccccc2)cc1	19%	< 10%	< 10%	52%	25%			49%	< 10%	< 10%	< 10%	13%	11%	25%	29%	47%	< 10%
CCOc1ccc(NC(=O)CSc2nc3ccccc3c(=O)n2CCc2ccccc2)cc1	23%	< 10%	31%	36%	19%		10%	< 10%	< 10%	12%	< 10%	< 10%	< 10%	10%	27%	25%	10%
CC(=O)c1ccc(NC(=O)CSc2nc3ccccc3c(=O)n2CCc2ccccc2)cc1	27%	12%	16%	22%	29%			33%	13%	30%	25%	28%	23%	21%	10%	32%	12%
O=C(CSc1nc2ccccc2c(=O)n1CCc1ccccc1)NCc1ccccc1	26%	10%	13%	36%	25%			37%	20%	38%	13%	29%	12%	14%	24%	28%	< 10%
